Data: PubChem BioAssay (NCI)
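96-well plates; 48 h exposure; 5 concentrations. Endpoints by linear interpolation between flanking doses. Not reached: highest tested concentration assigned. Abbreviation: GI50, concentration required for 50% inhibition of growth. Definition used: TGI = concentration required for complete inhibition of growth.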

Legend:
Test in all cases: NCI tumour cell line growth inhibition, 48 h
786-0 renal = system: 786-0 renal
A498 renal = system: A498 renal
A549 NSCLC = system: A549 NSCLC
ACHN renal = system: ACHN renal
BT-549 breast = system: BT-549 breast
CAKI-1 renal = system: CAKI-1 renal
CCRF-CEM leukemia = system: CCRF-CEM leukemia
COLO 205 colon = system: COLO 205 colon
DU-145 prostate = system: DU-145 prostate
EKVX NSCLC = system: EKVX NSCLC
HCC-2998 colon = system: HCC-2998 colon
HCT-116 colon = system: HCT-116 colon
HCT-15 colon = system: HCT-15 colon
HL-60(TB) leukemia = system: HL-60(TB) leukemia
HOP-62 NSCLC = system: HOP-62 NSCLC
HOP-92 NSCLC = system: HOP-92 NSCLC
HS 578T breast = system: HS 578T breast
HT29 colon = system: HT29 colon
IGROV1 ovarian = system: IGROV1 ovarian
K-562 leukemia = system: K-562 leukemia
KM12 colon = system: KM12 colon
LOX IMVI melanoma = system: LOX IMVI melanoma
M14 melanoma = system: M14 melanoma
MALME-3M melanoma = system: MALME-3M melanoma
MCF7 breast = system: MCF7 breast
MDA-MB-231 breast = system: MDA-MB-231 breast
MDA-MB-435 = system: MDA-MB-435
MDA-MB-468 breast = system: MDA-MB-468 breast
MOLT-4 leukemia = system: MOLT-4 leukemia
NCI-H226 lung = system: NCI-H226 lung
NCI-H23 lung = system: NCI-H23 lung
NCI-H460 lung = system: NCI-H460 lung
NCI-H522 lung = system: NCI-H522 lung
NCI/ADR-RES ovarian = system: NCI/ADR-RES ovarian
OVCAR-3 ovarian = system: OVCAR-3 ovarian
OVCAR-4 ovarian = system: OVCAR-4 ovarian
OVCAR-5 ovarian = system: OVCAR-5 ovarian
OVCAR-8 ovarian = system: OVCAR-8 ovarian
PC-3 prostate = system: PC-3 prostate
RPMI-8226 leukemia = system: RPMI-8226 leukemia
RXF 393 renal = system: RXF 393 renal
SF-268 CNS = system: SF-268 CNS
SF-295 CNS = system: SF-295 CNS
SF-539 CNS = system: SF-539 CNS
SK-MEL-2 melanoma = system: SK-MEL-2 melanoma
SK-MEL-28 melanoma = system: SK-MEL-28 melanoma
SK-MEL-5 melanoma = system: SK-MEL-5 melanoma
SK-OV-3 ovarian = system: SK-OV-3 ovarian
SN12C renal = system: SN12C renal
SNB-19 CNS = system: SNB-19 CNS
SNB-75 CNS = system: SNB-75 CNS
SR leukemia = system: SR leukemia
SW-620 colon = system: SW-620 colon
T-47D breast = system: T-47D breast
TK-10 renal = system: TK-10 renal
U251 CNS = system: U251 CNS
UACC-257 melanoma = system: UACC-257 melanoma
UACC-62 melanoma = system: UACC-62 melanoma
UO-31 renal = system: UO-31 renal

In the case of `COc1ccc2oc3c4[nH]c5ccccc5c4c4c(c3c2c1)C(=O)N(C(=O)OC(C)(C)C)C4=O`, the GI50 (786-0 renal) was 3.65 µM, the TGI (786-0 renal) was > 100 µM and the GI50 (A498 renal) was 1470 nM. For the same compound, the TGI (A498 renal) was 9.77 µM, the GI50 (A549 NSCLC) was 2840 nM and the TGI (A549 NSCLC) was 49.3 µM. For the same compound, the GI50 (ACHN renal) was 1490 nM, the TGI (ACHN renal) was 9.22 µM and the GI50 (BT-549 breast) was 2090 nM. The TGI (BT-549 breast) was 10.1 µM, the GI50 (CAKI-1 renal) was 2590 nM and the TGI (CAKI-1 renal) was 37.4 µM. The GI50 (CCRF-CEM leukemia) was 2650 nM, the TGI (CCRF-CEM leukemia) was > 100 µM and the GI50 (COLO 205 colon) was 3.03 µM. The TGI (COLO 205 colon) was 10.3 µM, the GI50 (DU-145 prostate) was 3.26 µM and the TGI (DU-145 prostate) was > 100 µM. For the same compound, the GI50 (EKVX NSCLC) was 3.33 µM, the TGI (EKVX NSCLC) was 32.2 µM and the GI50 (HCC-2998 colon) was 3.98 µM. The TGI (HCC-2998 colon) was > 100 µM, the GI50 (HCT-116 colon) was 3.06 µM and the TGI (HCT-116 colon) was 24.2 µM. The GI50 (HCT-15 colon) was 2120 nM, the TGI (HCT-15 colon) was 10.4 µM and the GI50 (HL-60(TB) leukemia) was 2280 nM. It also gave a TGI (HL-60(TB) leukemia) of 9.07 µM, a GI50 (HOP-62 NSCLC) of 2450 nM and a TGI (HOP-62 NSCLC) of 12.2 µM. It also gave a GI50 (HOP-92 NSCLC) of 2640 nM, a TGI (HOP-92 NSCLC) of 41.3 µM and a GI50 (HS 578T breast) of 2500 nM. The TGI (HS 578T breast) was 12.4 µM, the GI50 (HT29 colon) was 2980 nM and the TGI (HT29 colon) was > 100 µM. The GI50 (IGROV1 ovarian) was 2400 nM, the TGI (IGROV1 ovarian) was 27.6 µM and the GI50 (K-562 leukemia) was 2790 nM. For the same compound, the TGI (K-562 leukemia) was > 100 µM, the GI50 (KM12 colon) was 578 nM and the TGI (KM12 colon) was 9.28 µM. The GI50 (LOX IMVI melanoma) was 3.05 µM, the TGI (LOX IMVI melanoma) was 14.1 µM and the GI50 (M14 melanoma) was 1220 nM. It also gave a TGI (M14 melanoma) of 5 µM, a GI50 (MALME-3M melanoma) of 1910 nM and a TGI (MALME-3M melanoma) of 11.3 µM. For the same compound, the GI50 (MCF7 breast) was 1430 nM, the TGI (MCF7 breast) was 12.8 µM and the GI50 (MDA-MB-231 breast) was 6.45 µM. For the same compound, the TGI (MDA-MB-231 breast) was > 100 µM, the GI50 (MDA-MB-435) was 1430 nM and the TGI (MDA-MB-435) was 18.3 µM. The GI50 (MDA-MB-468 breast) was 2840 nM, the TGI (MDA-MB-468 breast) was 22 µM and the GI50 (MOLT-4 leukemia) was 1470 nM. For the same compound, the TGI (MOLT-4 leukemia) was 5.01 µM, the GI50 (NCI-H226 lung) was 2520 nM and the TGI (NCI-H226 lung) was 24.1 µM. It also gave a GI50 (NCI-H23 lung) of 2100 nM, a TGI (NCI-H23 lung) of 10.6 µM and a GI50 (NCI-H460 lung) of 2320 nM. For the same compound, the TGI (NCI-H460 lung) was > 100 µM, the GI50 (NCI-H522 lung) was 2200 nM and the TGI (NCI-H522 lung) was 11.6 µM. It also gave a GI50 (NCI/ADR-RES ovarian) of 2600 nM, a TGI (NCI/ADR-RES ovarian) of 15.4 µM and a GI50 (OVCAR-3 ovarian) of 3.72 µM. The TGI (OVCAR-3 ovarian) was 16.7 µM, the GI50 (OVCAR-4 ovarian) was 4.18 µM and the TGI (OVCAR-4 ovarian) was 89.2 µM. For the same compound, the GI50 (OVCAR-5 ovarian) was 2060 nM, the TGI (OVCAR-5 ovarian) was 31 µM and the GI50 (OVCAR-8 ovarian) was 2400 nM. For the same compound, the TGI (OVCAR-8 ovarian) was 11.1 µM, the GI50 (PC-3 prostate) was 1880 nM and the TGI (PC-3 prostate) was > 100 µM. It also gave a GI50 (RPMI-8226 leukemia) of 1830 nM, a TGI (RPMI-8226 leukemia) of 8.29 µM and a GI50 (RXF 393 renal) of 3.12 µM. The TGI (RXF 393 renal) was 19.2 µM, the GI50 (SF-268 CNS) was 3.11 µM and the TGI (SF-268 CNS) was 41.6 µM. The GI50 (SF-295 CNS) was 2620 nM, the TGI (SF-295 CNS) was 10.9 µM and the GI50 (SF-539 CNS) was 3.12 µM. The TGI (SF-539 CNS) was 11.5 µM, the GI50 (SK-MEL-2 melanoma) was 2840 nM and the TGI (SK-MEL-2 melanoma) was 10.2 µM. For the same compound, the GI50 (SK-MEL-28 melanoma) was 1670 nM, the TGI (SK-MEL-28 melanoma) was 5.18 µM and the GI50 (SK-MEL-5 melanoma) was 4.09 µM. For the same compound, the TGI (SK-MEL-5 melanoma) was 16.1 µM, the GI50 (SK-OV-3 ovarian) was 2590 nM and the TGI (SK-OV-3 ovarian) was 24.3 µM. The GI50 (SN12C renal) was 2250 nM, the TGI (SN12C renal) was 37.2 µM and the GI50 (SNB-19 CNS) was 4.21 µM. For the same compound, the TGI (SNB-19 CNS) was > 100 µM, the GI50 (SNB-75 CNS) was 3.07 µM and the TGI (SNB-75 CNS) was 33.8 µM. For the same compound, the GI50 (SR leukemia) was 1590 nM, the TGI (SR leukemia) was > 100 µM and the GI50 (SW-620 colon) was 2330 nM. The TGI (SW-620 colon) was > 100 µM, the GI50 (T-47D breast) was 1280 nM and the TGI (T-47D breast) was 7.23 µM. For the same compound, the GI50 (TK-10 renal) was 2560 nM, the TGI (TK-10 renal) was > 100 µM and the GI50 (U251 CNS) was 2860 nM. It also gave a TGI (U251 CNS) of 28.2 µM, a GI50 (UACC-257 melanoma) of 2490 nM and a TGI (UACC-257 melanoma) of 9.3 µM. For the same compound, the GI50 (UACC-62 melanoma) was 2400 nM, the TGI (UACC-62 melanoma) was 11.9 µM and the GI50 (UO-31 renal) was 900 nM. For the same compound, the TGI (UO-31 renal) was 25.8 µM.
